From patent publication US12319689B2, “Methyl- and trifluoromethyl-containing disubstituted sulfonamide selective BCL-2 inhibitor” (CHIA TAI TIANQING PHARMACEUTICAL GROUP CO., LTD., priority 2019, dated 2025)
pIC50: −log10 of the molar value.

What was measured:
BCL-2/BAK = target: T1, BCL-2/BAK (Homo sapiens, UniProt P10415); test: Inhibitory activity for BCL-2/BAK binding (Cisbio BCL-2/BAK (BH3) binding assay kit)
T1 construct: purchased Cisbio 63ADK000CB01PEG
Experimental: 500 nM Tag1-BCL-2 protein stock solution and 20 μM Tag2-BAK protein stock solution were diluted to 5 nM and 120 nM respectively with dilution buffer in kit (name: BCL-2/BAK (BH3) BINDING ASSAY KITS, cat. No.: 63ADK000CB01PEG, from Cisbio). 5 μL of Tag1-BCL-2 protein diluent was added to each well, then test compounds dissolved with DMSO were added to the wells with a nanoliter pipettor, allowing the final compound concentrations to be 200 nM to 0.0488 nM (4-fold gradient for 7 concentrations in total). Blank control wells (without enzyme) and negative control wells (with enzyme, plus vehicle DMSO) were set, and 2 replicate wells were set. Finally, 5 μL of Tag2-BAK protein diluent was added to each well, and the mixture was mixed well by centrifugation and incubated at 25° C. for 15 min. 100× anti-Tag1-Eu^3+ and 100× anti-Tag2-XL665 were both diluted to 1× working concentration with the detection buffer in the kit. Anti-Tag1-Eu^3+ and anti-Tag2-XL665 were mixed well in a 1:1 ratio, and the mixture was added to wells at 5 μL/well, and incubated at 25° C. for 2 h or more. The plate was read using a PE Envision multi-functional microplate reader ([…], emission: 665 nm) and IC50 (shown in Table 2) was calculated by four-parameter fitting.

RS4;11 cells = test: Inhibition of proliferation of RS4;11 human acute lymphocytic leukemia cells (CCK-8); format: cell-based; settings: 72 h compound exposure, CCK-8, 5% serum
Experimental: RS4;11 cells (from ATCC) in logarithmic growth phase and good cell condition were added to a centrifuge tube and centrifuged at 1500 rpm for 3 min in a low speed centrifuge. The supernatant was discarded, and 5 mL of complete medium (RPMI basic medium+10% FBS) was added using a pipette for cell resuspension. The cells were counted using a cell counter, diluted with complete medium to a cell density of 2×10^5 cells/mL, and an equivalent amount of RPMI basic medium was added to adjust the serum concentration to 5% and the cell density to 1×10^5 cells/mL for plate seeding. The cells were seeded on a 96-well plate at 100 μL/well using a pipettor, and incubated in an incubator at 37° C., 5% CO2 with saturated humidity. After 24 h of incubation, compounds were loaded using a nanoliter pipettor, 2 duplicate wells were set for each concentration, and cells without compound were used as negative controls. […] Inhibition rate (%)=(mean value of negative control group−mean value of experimental group)/(mean value of negative control group−mean value of blank group)×100%. A dose-response curve was fitted by four-parameter analysis, with the logarithm of compound concentration serving as abscissa and inhibition rate serving as ordinate, so that IC50 was calculated (Table 1).

BCL-XL/BAK = target: T2, BCL-XL/BAK (Homo sapiens, UniProt Q07817); test: Inhibitory activity for BCL-XL/BAK binding (Cisbio BCL-XL/BAK (BH3) binding assay kit)
T2 construct: purchased Cisbio 63ADK000CB04PEG
T2 sequence (Q07817 whole entry): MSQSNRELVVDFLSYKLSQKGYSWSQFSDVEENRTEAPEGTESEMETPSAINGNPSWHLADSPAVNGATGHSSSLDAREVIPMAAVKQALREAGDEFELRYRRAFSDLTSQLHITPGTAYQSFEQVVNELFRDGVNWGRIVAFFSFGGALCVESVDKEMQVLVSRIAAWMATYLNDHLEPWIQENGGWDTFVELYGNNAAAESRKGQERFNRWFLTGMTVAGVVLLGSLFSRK
Experimental: 300 nM Tag1-BCL-XL protein stock solution and 10 μM Tag2-BAK protein stock solution were diluted to 2 nM and 80 nM respectively with dilution buffer in kit (name: BCL-XL/BAK (BH3) BINDING ASSAY KITS, cat. No.: 63ADK000CB04PEG, from Cisbio). 5 μL of Tag1-BCL-XL protein diluent was added to each well, then different test compounds dissolved with DMSO were added to the wells with a nanoliter pipettor, allowing the final compound concentrations to be 2000 nM to 0.488 nM (4-fold gradient for 7 concentrations in total). Blank control wells (without enzyme) and negative control wells (with enzyme, plus vehicle DMSO) were set, and 2 replicate wells were set. Finally, 5 μL of Tag2-BAK protein diluent was added to each well, and the mixture was mixed well by centrifugation and incubated at 25° C. for 15 min. 100× anti-Tag1-Eu^3+ and 100× anti-Tag2-XL665 were both diluted to 1× working concentration with the detection buffer in the kit. Anti-Tag1-Eu^3+ and anti-Tag2-XL665 were mixed well in a 1:1 ratio, and the mixture was added to wells at 5 μL/well, and incubated at 25° C. for 2 h or more. The plate was read using a PE Envision multi-functional microplate reader ([…], emission: 665 nm) and IC50 (shown in Table 2) was calculated by four-parameter fitting.

[1] = tested on: RS4;11 human acute lymphoblastic leukemia subcutaneous xenograft tumors; test: RS4;11 human acute lymphoblastic leukemia mouse subcutaneous tumor xenograft model; format: in vivo, NOD/SCID mice; settings: 25 mg/kg single intragastric dose; Day 12 after the end of administration
Experimental: SPF female NOD/SCID mice (Shanghai Lingchang Biotech Co., Ltd.) were inoculated subcutaneously at the right side armpit with 1×10^7 RS4;11 cells (ATCC). When the mean tumor volume reached about 180 mm^3, the mice were divided into 3 groups according to the tumor size: vehicle, compound 1-1 (25 mg/kg) and compound 3-1 (25 mg/kg). The day of grouping was determined as d0. On d1, a single intragastric dose at a volume of 10 mL/kg was administered, and the animals were observed.
The calculation formula for tumor volume: Tumor volume (mm^3)=½×(a×b^2) (where a represents long diameter and b represents short diameter).
Relative tumor proliferation rate (T/C %) refers to the percentage of the relative tumor volume or tumor weight of the treatment and control groups at a certain time point. The calculation formula is as follows: T/C %=TRTV/CRTV×100% (TRTV: mean relative tumor volume (RTV) for treatment group; CRTV: mean RTV for vehicle control group; RTV=TVt/TV0, where TV0 is the tumor volume at grouping, TVt is the tumor volume after treatment).
Tumor growth inhibition rate (TGI %) is calculated according to the following formula: TGI %=(1−T/C)×100%. (T and C are the relative tumor volume (RTV) or tumor weight (TW) at a particular time point for the treatment and control groups, respectively).
The calculation formula for weight change rate (WCR) (%) is: WCR=(Wtt−Wt0)/Wt0×100%, where Wt0 is the body weight of the animal at grouping (i.e., d0), Wtt is the body weight of the animal at each measurement.
All experimental results are expressed as mean±SD (mean±standard deviation). The relative tumor volume of the treatment group was compared with that of the control group for any significant difference by T tests, wherein p<0.05 indicates a significant difference, and p<0.01 indicates a very significant difference.

T1 sequence (P10415 whole entry): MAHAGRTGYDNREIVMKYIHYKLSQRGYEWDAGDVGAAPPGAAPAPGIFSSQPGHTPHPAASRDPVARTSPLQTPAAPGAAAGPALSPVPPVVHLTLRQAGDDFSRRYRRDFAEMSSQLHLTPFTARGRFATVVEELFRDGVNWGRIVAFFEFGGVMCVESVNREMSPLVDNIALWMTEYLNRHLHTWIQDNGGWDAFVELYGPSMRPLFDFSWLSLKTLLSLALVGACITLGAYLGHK

| Compound | pIC50 (BCL-2/BAK) | pIC50 (RS4;11 cells) | other results |
| --- | --- | --- | --- |
| Cc1cc(C(F)(F)F)ccc1C1=C(CN2CCN(c3ccc(C(=O)NS(=O)(=O)c4ccc(NC[C@@H]5CCCO5)c([N+](=O)[O-])c4)c(Oc4cnc5[nH]ccc5c4)c3)CC2)CCC(C)(C)C1 [Compound 11-1, (S)-4-(4-{[2-(2-methyl-4-trifluoromethylphenyl)-4,4-dimethylcyclohex-1-enyl]methyl}-piperazin-1-yl)-N-({3-nitro-4-[((tetrahydrofuran-2-yl)methyl)amino]phenyl}sulfonyl)-2-(1H-pyrrolo[2,3-b]pyridin-5-yloxy)-benzamide] | 8.75 |  |  |
| Cc1cc(C(F)(F)F)ccc1C1=C(CN2CCN(c3ccc(C(=O)NS(=O)(=O)c4ccc(NC[C@@H]5COCCO5)c([N+](=O)[O-])c4)c(Oc4cnc5[nH]ccc5c4)c3)CC2)CCC(C)(C)C1 [Compound 2-1] |  | 8.38 |  |
| COCC(=O)N1CCO[C@@H](CNc2ccc(S(=O)(=O)NC(=O)c3ccc(N4CCN(CC5=C(c6ccc(C(F)(F)F)cc6C)CC(C)(C)CC5)CC4)cc3Oc3cnc4[nH]ccc4c3)cc2[N+](=O)[O-])C1 [Compound 4-1] | 9.15 | 8.27 |  |
| Cc1cc(C(F)(F)F)ccc1C1=C(CN2CCN(c3ccc(C(=O)NS(=O)(=O)c4ccc(NC[C@H]5CN(C(=O)C(C)C)CCO5)c([N+](=O)[O-])c4)c(Oc4cnc5[nH]ccc5c4)c3)CC2)CCC(C)(C)C1 [Compound 20-1, (S)-4-(4-{[2-(2-methyl-4-trifluoromethylphenyl)-4,4-dimethylcyclohex-1-enyl]methyl}-piperazin-1-yl)-N-({3-nitro-4-[((4-isobutyrylmorpholin-2-yl)methyl)amino]phenyl}sulfonyl)-2-(1H-pyrrolo[2,3-b]pyridin-5-yloxy)-benzamide] | 8.69 |  |  |
| Cc1cc(C(F)(F)F)ccc1C1=C(CN2CCN(c3ccc(C(=O)NS(=O)(=O)c4ccc(NC[C@@H]5CN(S(C)(=O)=O)CCO5)c([N+](=O)[O-])c4)c(Oc4cnc5[nH]ccc5c4)c3)CC2)CCC(C)(C)C1 [Compound 23-1, (R)-4-(4-{[2-(2-methyl-4-trifluoromethylphenyl)-4,4-dimethylcyclohex-1-enyl]methyl}-piperazin-1-yl)-N-({3-nitro-4-[((4-(methylsulfonyl)morpholin-2-yl)methyl)amino]phenyl}sulfonyl)-2-(1H-pyrrolo[2,3-b]pyridin-5-yloxy)-benzamide] | 8.96 | 8.60 |  |
| Cc1cc(C(F)(F)F)ccc1C1=C(CN2CCN(c3ccc(C(=O)NS(=O)(=O)c4ccc(NC[C@H]5CCOC5)c([N+](=O)[O-])c4)c(Oc4cnc5[nH]ccc5c4)c3)CC2)CCC(C)(C)C1 [Compound 9-1, (R)-4-(4-{[2-(2-methyl-4-trifluoromethylphenyl)-4,4-dimethylcyclohex-1-enyl]methyl}-piperazin-1-yl)-N-({3-nitro-4-[((tetrahydrofuran-3-yl)methyl)amino]phenyl}sulfonyl)-2-(1H-pyrrolo[2,3-b]pyridin-5-yloxy)-benzamide] | 8.90 |  | pIC50 (BCL-XL/BAK): 6.66 |
| Cc1cc(C(F)(F)F)ccc1C1=C(CN2CCN(c3ccc(C(=O)NS(=O)(=O)c4ccc(NC[C@@H]5CCCOC5)c([N+](=O)[O-])c4)c(Oc4cnc5[nH]ccc5c4)c3)CC2)CCC(C)(C)C1 [Compound 16-1, (S)-4-(4-{[2-(2-methyl-4-trifluoromethylphenyl)-4,4-dimethylcyclohex-1-enyl]methyl}-piperazin-1-yl)-N-({3-nitro-4-[((tetrahydropyran-3-yl)methyl)amino]phenyl}sulfonyl)-2-(1H-pyrrolo[2,3-b]pyridin-5-yloxy)-benzamide] | 8.68 |  | pIC50 (BCL-XL/BAK): 6.84 |
| Cc1cc(C(F)(F)F)ccc1C1=C(CN2CCN(c3ccc(C(=O)NS(=O)(=O)c4ccc(NC[C@H]5COCCO5)c([N+](=O)[O-])c4)c(Oc4cnc5[nH]ccc5c4)c3)CC2)CCC(C)(C)C1 [Compound 3-1] | 8.83 | 8.72 | Relative tumor volume (mean ± SD) [1]: 1.3 ± 0.8; T/C [1]: 25.0%; TGI [1]: 75.0%; Tumor volume (mean ± SD) [1]: 213 ± 93 mm^3; Weight change rate (mean ± SD) [1]: 5.61 ± 3.61% |
| CC(=O)N1CCO[C@@H](CNc2ccc(S(=O)(=O)NC(=O)c3ccc(N4CCN(CC5=C(c6ccc(C(F)(F)F)cc6C)CC(C)(C)CC5)CC4)cc3Oc3cnc4[nH]ccc4c3)cc2[N+](=O)[O-])C1 [Compound 18-1, (S)-4-(4-{[2-(2-methyl-4-trifluoromethylphenyl)-4,4-dimethylcyclohex-1-enyl]methyl}-piperazin-1-yl)-N-({3-nitro-4-[((4-acetylmorpholin-2-yl)methyl)amino]phenyl}sulfonyl)-2-(1H-pyrrolo[2,3-b]pyridin-5-yloxy)-benzamide] | 8.81 | 8.26 |  |
| Cc1cc(C(F)(F)F)ccc1C1=C(CN2CCN(c3ccc(C(=O)NS(=O)(=O)c4ccc(NCC5CCOCC5)c([N+](=O)[O-])c4)c(Oc4cnc5[nH]ccc5c4)c3)CC2)CCC(C)(C)C1 [Compound 1-1, 4-(4-{[2-(2-methyl-4-trifluoromethylphenyl)-4,4-dimethylcyclohex-1-enyl]methyl}-piperazin-1-yl)-N-({3-nitro-4-[(tetrahydro-2H-pyran-4-ylmethyl)amino]phenyl}sulfonyl)-2-(1H-pyrrolo[2,3-b]pyridin-5-yloxy)-benzamide] |  | 8.41 | Relative tumor volume (mean ± SD) [1]: 2.1 ± 0.6; T/C [1]: 40.4%; TGI [1]: 59.6%; Tumor volume (mean ± SD) [1]: 350 ± 80 mm^3; Weight change rate (mean ± SD) [1]: 8.20 ± 3.58% |
| CC(=O)N1CCO[C@H](CNc2ccc(S(=O)(=O)NC(=O)c3ccc(N4CCN(CC5=C(c6ccc(C(F)(F)F)cc6C)CC(C)(C)CC5)CC4)cc3Oc3cnc4[nH]ccc4c3)cc2[N+](=O)[O-])C1 [Compound 19-1, (R)-4-(4-{[2-(2-methyl-4-trifluoromethylphenyl)-4,4-dimethylcyclohex-1-enyl]methyl}-piperazin-1-yl)-N-({3-nitro-4-[((4-acetylmorpholin-2-yl)methyl)amino]phenyl}sulfonyl)-2-(1H-pyrrolo[2,3-b]pyridin-5-yloxy)-benzamide] | 9.01 | 8.47 |  |
